Measured values published in PubChem BioAssay (NCI).
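Test compounds were applied to cells in 96-well plates for 48 hours at 5 doses. TGI: total growth inhibition.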

What was measured:
Assay in all cases: inhibition of tumour cell growth, NCI panel, 48 h
OVCAR-5 ovarian = system: OVCAR-5 ovarian
NCI-H23 lung = system: NCI-H23 lung
MCF7 breast = system: MCF7 breast
NCI-H460 lung = system: NCI-H460 lung
OVCAR-4 ovarian = system: OVCAR-4 ovarian
HCC-2998 colon = system: HCC-2998 colon
HS 578T breast = system: HS 578T breast
U251 CNS = system: U251 CNS
UACC-257 melanoma = system: UACC-257 melanoma
786-0 renal = system: 786-0 renal
SF-295 CNS = system: SF-295 CNS
MALME-3M melanoma = system: MALME-3M melanoma
MDA-MB-435 = system: MDA-MB-435
HL-60(TB) leukemia = system: HL-60(TB) leukemia
HOP-92 NSCLC = system: HOP-92 NSCLC
CAKI-1 renal = system: CAKI-1 renal
SN12C renal = system: SN12C renal
SK-MEL-28 melanoma = system: SK-MEL-28 melanoma
TK-10 renal = system: TK-10 renal
DU-145 prostate = system: DU-145 prostate
MDA-MB-231 breast = system: MDA-MB-231 breast
MOLT-4 leukemia = system: MOLT-4 leukemia
A498 renal = system: A498 renal
M14 melanoma = system: M14 melanoma
NCI-H522 lung = system: NCI-H522 lung
NCI/ADR-RES ovarian = system: NCI/ADR-RES ovarian
SR leukemia = system: SR leukemia
BT-549 breast = system: BT-549 breast
KM12 colon = system: KM12 colon
HOP-62 NSCLC = system: HOP-62 NSCLC
SNB-19 CNS = system: SNB-19 CNS
RXF 393 renal = system: RXF 393 renal
OVCAR-8 ovarian = system: OVCAR-8 ovarian
ACHN renal = system: ACHN renal
RPMI-8226 leukemia = system: RPMI-8226 leukemia
IGROV1 ovarian = system: IGROV1 ovarian
PC-3 prostate = system: PC-3 prostate
EKVX NSCLC = system: EKVX NSCLC
HCT-15 colon = system: HCT-15 colon
SK-OV-3 ovarian = system: SK-OV-3 ovarian
UO-31 renal = system: UO-31 renal
SW-620 colon = system: SW-620 colon
UACC-62 melanoma = system: UACC-62 melanoma
SK-MEL-5 melanoma = system: SK-MEL-5 melanoma
K-562 leukemia = system: K-562 leukemia
OVCAR-3 ovarian = system: OVCAR-3 ovarian
A549 NSCLC = system: A549 NSCLC
T-47D breast = system: T-47D breast
SK-MEL-2 melanoma = system: SK-MEL-2 melanoma
MDA-N = system: MDA-N
SNB-75 CNS = system: SNB-75 CNS
LOX IMVI melanoma = system: LOX IMVI melanoma
SF-268 CNS = system: SF-268 CNS
SF-539 CNS = system: SF-539 CNS
NCI-H226 lung = system: NCI-H226 lung
HCT-116 colon = system: HCT-116 colon
CCRF-CEM leukemia = system: CCRF-CEM leukemia
HT29 colon = system: HT29 colon
COLO 205 colon = system: COLO 205 colon

`CS(=O)(=O)OCCCCOS(=O)(=O)CF` was tested. Which TGI (OVCAR-5 ovarian) did it give?
The TGI was greater than 100 µM.

What about the TGI (NCI-H23 lung) of the same compound?
The TGI was greater than 100 µM.

What about the TGI (MCF7 breast) of the same compound?
The TGI was greater than 100 µM.

And the TGI (NCI-H460 lung)?
Its TGI is greater than 100 µM.

And the TGI (OVCAR-4 ovarian)?
Its TGI is greater than 100 µM.

And the TGI (HCC-2998 colon)?
The TGI was greater than 100 µM.

And the TGI (HS 578T breast)?
Its TGI is greater than 100 µM.

What about the TGI (U251 CNS) of the same compound?
The TGI was greater than 100 µM.

And the TGI (UACC-257 melanoma)?
Its TGI is greater than 100 µM.

And the TGI (786-0 renal)?
The TGI was greater than 100 µM.

What about the TGI (SF-295 CNS) of the same compound?
Its TGI is greater than 100 µM.

What about the TGI (MALME-3M melanoma) of the same compound?
The TGI was greater than 46.4 µM.

What about the TGI (MDA-MB-435) of the same compound?
The TGI was greater than 100 µM.

And the TGI (HL-60(TB) leukemia)?
Its TGI is greater than 100 µM.

What about the TGI (HOP-92 NSCLC) of the same compound?
The TGI was greater than 92.4 µM.

And the TGI (CAKI-1 renal)?
Its TGI is greater than 100 µM.

What about the TGI (SN12C renal) of the same compound?
The TGI was greater than 100 µM.

And the TGI (SK-MEL-28 melanoma)?
The TGI was greater than 100 µM.

And the TGI (TK-10 renal)?
Its TGI is greater than 100 µM.

And the TGI (DU-145 prostate)?
Its TGI is greater than 100 µM.

What about the TGI (MDA-MB-231 breast) of the same compound?
The TGI was greater than 100 µM.

And the TGI (MOLT-4 leukemia)?
Its TGI is greater than 100 µM.

What about the TGI (A498 renal) of the same compound?
The TGI was greater than 100 µM.

What about the TGI (M14 melanoma) of the same compound?
The TGI was greater than 100 µM.

What about the TGI (NCI-H522 lung) of the same compound?
Its TGI is greater than 100 µM.

What about the TGI (NCI/ADR-RES ovarian) of the same compound?
The TGI was greater than 100 µM.

And the TGI (SR leukemia)?
Its TGI is greater than 100 µM.

What about the TGI (BT-549 breast) of the same compound?
The TGI was greater than 100 µM.

What about the TGI (KM12 colon) of the same compound?
The TGI was greater than 100 µM.

What about the TGI (HOP-62 NSCLC) of the same compound?
The TGI was greater than 100 µM.

And the TGI (SNB-19 CNS)?
Its TGI is greater than 100 µM.

And the TGI (RXF 393 renal)?
The TGI was greater than 100 µM.

And the TGI (OVCAR-8 ovarian)?
The TGI was greater than 100 µM.

And the TGI (ACHN renal)?
Its TGI is greater than 100 µM.

What about the TGI (RPMI-8226 leukemia) of the same compound?
The TGI was greater than 100 µM.

What about the TGI (IGROV1 ovarian) of the same compound?
The TGI was greater than 100 µM.

And the TGI (PC-3 prostate)?
Its TGI is greater than 100 µM.

And the TGI (EKVX NSCLC)?
Its TGI is greater than 100 µM.

And the TGI (HCT-15 colon)?
The TGI was greater than 100 µM.

And the TGI (SK-OV-3 ovarian)?
Its TGI is greater than 100 µM.

And the TGI (UO-31 renal)?
Its TGI is greater than 100 µM.

And the TGI (SW-620 colon)?
The TGI was greater than 100 µM.

What about the TGI (UACC-62 melanoma) of the same compound?
The TGI was greater than 100 µM.

What about the TGI (SK-MEL-5 melanoma) of the same compound?
The TGI was greater than 100 µM.

What about the TGI (K-562 leukemia) of the same compound?
Its TGI is greater than 100 µM.

What about the TGI (OVCAR-3 ovarian) of the same compound?
Its TGI is greater than 100 µM.

What about the TGI (A549 NSCLC) of the same compound?
Its TGI is greater than 100 µM.

What about the TGI (T-47D breast) of the same compound?
The TGI was greater than 100 µM.

And the TGI (SK-MEL-2 melanoma)?
Its TGI is greater than 100 µM.

What about the TGI (MDA-N) of the same compound?
Its TGI is greater than 100 µM.

What about the TGI (SNB-75 CNS) of the same compound?
Its TGI is greater than 100 µM.

What about the TGI (LOX IMVI melanoma) of the same compound?
The TGI was greater than 100 µM.

And the TGI (SF-268 CNS)?
The TGI was greater than 100 µM.

And the TGI (SF-539 CNS)?
Its TGI is greater than 100 µM.

What about the TGI (NCI-H226 lung) of the same compound?
Its TGI is greater than 100 µM.

What about the TGI (HCT-116 colon) of the same compound?
Its TGI is greater than 100 µM.

What about the TGI (CCRF-CEM leukemia) of the same compound?
Its TGI is greater than 100 µM.

What about the TGI (HT29 colon) of the same compound?
Its TGI is greater than 100 µM.

What about the TGI (COLO 205 colon) of the same compound?
Its TGI is greater than 100 µM.

What does the source list for `CC1=NN(c2nc(N)nc(/C(C#N)=C/c3ccccc3O)n2)C(C)(C)C1`?
TGI (OVCAR-5 ovarian): 30.4 µM; TGI (NCI-H23 lung): 34.5 µM; TGI (MCF7 breast): 64.9 µM; TGI (NCI-H460 lung): 40.9 µM; TGI (OVCAR-4 ovarian): 34.2 µM; TGI (HCC-2998 colon): 36.5 µM; TGI (HS 578T breast): 35.4 µM; TGI (U251 CNS): 41.3 µM; TGI (UACC-257 melanoma): 38.5 µM; TGI (786-0 renal): 29.1 µM; TGI (SF-295 CNS): 30.7 µM; TGI (MALME-3M melanoma): 33.8 µM; TGI (MDA-MB-435): 32.9 µM; TGI (HL-60(TB) leukemia): 65.3 µM; TGI (HOP-92 NSCLC): 36.7 µM; TGI (CAKI-1 renal): 36.9 µM; TGI (SN12C renal): 71.9 µM; TGI (SK-MEL-28 melanoma): 30.8 µM; TGI (TK-10 renal): 58.4 µM; TGI (DU-145 prostate): 32 µM; TGI (MDA-MB-231 breast): 40.7 µM; TGI (MOLT-4 leukemia): > 100 µM; TGI (A498 renal): 62.9 µM; TGI (M14 melanoma): 36.4 µM; TGI (NCI-H522 lung): 36 µM; TGI (NCI/ADR-RES ovarian): 47 µM; TGI (SR leukemia): > 100 µM; TGI (BT-549 breast): 67.7 µM; TGI (KM12 colon): 31.4 µM; TGI (HOP-62 NSCLC): 38.8 µM; TGI (SNB-19 CNS): 91.7 µM; TGI (RXF 393 renal): 39.5 µM; TGI (OVCAR-8 ovarian): 61.6 µM; TGI (ACHN renal): 34.5 µM; TGI (RPMI-8226 leukemia): 36.2 µM; TGI (IGROV1 ovarian): 45.5 µM; TGI (PC-3 prostate): 31.6 µM; TGI (EKVX NSCLC): 37.5 µM; TGI (HCT-15 colon): 38.6 µM; TGI (SK-OV-3 ovarian): 53.2 µM; TGI (UO-31 renal): 36.5 µM; TGI (UACC-62 melanoma): 33.5 µM; TGI (SK-MEL-5 melanoma): 28.8 µM; TGI (K-562 leukemia): > 100 µM; TGI (OVCAR-3 ovarian): 27.8 µM; TGI (A549 NSCLC): 31.5 µM; TGI (T-47D breast): 31.9 µM; TGI (SK-MEL-2 melanoma): 39.6 µM; TGI (MDA-N): 30.7 µM; TGI (SF-268 CNS): 37.1 µM; TGI (SF-539 CNS): 30.6 µM; TGI (NCI-H226 lung): 37.8 µM; TGI (HCT-116 colon): 32.2 µM; TGI (CCRF-CEM leukemia): 35.5 µM; TGI (HT29 colon): 42.6 µM; TGI (COLO 205 colon): 31.5 µM
